Patent publication US6706509B2, “Oncoprotein protein kinase” (The Regents of the University of California, priority 1993, dated 2004)

Experiments:
Type in all cases: cell-based, human
[1] = tested on: JNK (55 kD and 46 kD forms); assay: In-gel kinase assay of JNK in Jurkat whole cell extracts; conditions: for JNK activation, in-gel kinase assay, agent alone: TPA 50 ng/ml or A23187 1 μg/ml
Protocol: In-gel kinase assay was performed as described by Kameshita and Fujisawa, Anal. Biochem., 183:139, (1989) with slight modifications. Briefly, c-Jun binding proteins were isolated from whole cell extracts by using GSH-agarose beads containing 80 μg GST-cJun as described above. Proteins were eluted in Laemlli sample buffer and resolved on 10% SDS-polyacrylamide gel, which was polymerized in the absence or presence of GST-cJun (40 μg/ml). After electrophoresis, the gel was washed twice, 30 minutes each time with 100 ml of 20% 2-propanol, 50 mM HEPES pH 7.6 to remove SDS. After the gel was washed twice, 30 minutes each time, with 100 ml of buffer A (50 mM HEPES pH 7.6, 5 mM β-mercaptoethanol), it was incubated in 200 ml of 6M urea in buffer A at room temperature for 1 hr, followed by serial incubations in buffer A containing 0.05% Tween 20 and either 3M, 1.5M or 0.75M urea. After the gel was washed several times, 1 hr each time, with 100 ml of buffer A containing 0.05% Tween 20 at 4° C., it was incubated with kinase buffer containing 50 μM ATP and 5 μCi/ml γ-^32P-ATP at 30° C. for 1 hour. After the reaction, the gel was washed with 100 ml of 5% tricholoroacetic acid and 1% sodium pyrophosphate at room temperature several times, followed by drying and autoradiography.
JNK exists in two forms, 46 kD and 55 kD in size, both of which are activated by external stimuli (Hibi, et al., supra, 1993; Deng, et al., supra, 1993). […] Whole cell extracts (WCE) of Jurkat cells incubated with TPA (T, 50 ng/ml), A23187 (A, 1 μg/ml) or CsA (100 ng/ml) for 15 minutes, alone or in combination, were separated by SDS-PAGE (100 μg protein/lane) on gels that were cast in the absence or presence of GST-cJun (1-223). The gels were subjected to renaturation protocol and incubated in kinase buffer containing γ-^32P-ATP. The protein bands corresponding to the 55 kD and 46 kD forms of JNK are indicated.
The regulation of JNK in response to T cell activation with anti-CD3 and anti-CD28 antibodies was examined. Jurkat cells (1×10^7) were incubated for 15 minutes with either normal mouse serum, 1 μg/ml anti-CD3 and/or 2 μg/ml anti-CD28, in the absence or presence of 100 ng/ml CsA, as indicated. WCE were prepared and 100 μg samples were analyzed for JNK activation using the in-gel kinase assay, as described above.

ERK2 = ERK2 MBP-kinase activity after anti-ERK2 immunoprecipitation, Jurkat cells
Protocol: WCE (50 μg) of Jurkat cells treated as described above were incubated with GSTcJun(1-223)-GSH agarose beads and assayed for JNK activity using the solid-state kinase assay. The same WCE (20 μg) were immunoprecipitated with anti-ERK2 antibodies and assayed for MBP-kinase activity.
WCE (50 μg) of Jurkat cells treated as described in Panel A with various stimuli alone or their combinations were incubated with GSTcJun(1-223)-GSH agarose beads and assayed for JNK activity using solid-state kinase assay. The same samples (20 μg) were also assayed for MBP-kinase activity as described in FIG. 16B.

c-jun = assay: Northern blot of c-jun expression in Jurkat cells
Protocol: (§1) Exponentially growing Jurkat cells (10^6/ml) grown in complete RPMI medium was pretreated with CsA for 15 minutes when applicable, then subjected to various treatments for another 40 minutes. Total cytoplasmic RNA was extracted as previously described (Angel, et al., Cell, 49:729-739, 1987). 10 μg RNA was denatured by incubating with glyoxal for 60 minutes at 55° C. and fractionated on a 1% agarose gel in phosphate buffer. The fractionated RNA was blotted to Zetabind Nylon membrane (CUNO Labs) and hybridized to ^32P-labelled cDNA probes specific for c-jun, jun-B, jun-D, c-fos, α-tubulin and IL-2.
(§2) During the first stage of T lymphocyte activation, early response genes are rapidly included (Crabtree, Science, 243:355,361, 1989; Zipfel, et al., Mol Cell Bio., 9:1041-1048, 1989). […] After fractionation of 10 μg samples on an agarose gel and transfer to nylon membrane, the level of c-jun, jun-B, jun-D, c-fos and α-tubulin expression was determined by hybridization to random primed cDNA probes.
(§3) Second, Jurkat cells were incubated with 10 μg/ml soluble anti-CD3 (OKT3), 2 μg/ml soluble anti-CD28 (9.3) or a combination of 50 ng/ml TPA and 1 μg/ml A23817 (T/A) as indicated for 40 minutes. Total cytoplasmic RNA was isolated and 10 μg samples were analyzed as described above using c-jun, jun-D and c-fos probes. […]

c-fos = assay: Northern blot of c-fos expression in Jurkat cells
Protocol: as §1, §2, §3

**Q.** CNc1ccc2oc(C[C@H]3O[C@@]4(CC[C@H]3C)O[C@H]([C@H](C)C(=O)c3ccc[nH]3)[C@H](C)C[C@H]4C)nc2c1C(=O)O [A23187] was tested. Which “JNK activation, in-gel kinase assay, costimulation with TPA” value ([1]; A23187 1 μg/ml plus TPA 50 ng/ml, 15 minutes) did it give?
**A.** Its value is “potentiated its activation by TPA”.

**Q.** What about the “JNK activation, in-gel kinase assay, agent alone” value ([1]; Jurkat, 15 minutes) of the same compound?
**A.** The value was “did not activate JNK”.

**Q.** CCCCCCCCCCCCCC(=O)O[C@@H]1[C@@H](C)[C@@]2(O)[C@@H](C=C(CO)C[C@]3(O)C(=O)C(C)=C[C@@H]23)[C@H]2C(C)(C)[C@]12OC(C)=O [TPA] was tested. Which “ERK2 activation, suboptimal dose of TPA by itself” value (ERK2) did it give?
**A.** Its value is “partial activation of ERK2”.

**Q.** And the “JNK activation, in-gel kinase assay, agent alone” value ([1]; Jurkat, 15 minutes)?
**A.** The value was “activated”.

**Q.** For “anti-CD3: anti-CD3 monoclonal antibody OKT3”, which “c-jun expression, agent alone” value (c-jun; soluble anti-CD3, 40 minutes) is on record?
**A.** The value was “induction”.

**Q.** And the “JNK activity, in-gel kinase assay, simultaneous incubation with both antibodies” value ([1]; Jurkat, 1 μg/ml anti-CD3 and 2 μg/ml anti-CD28, 15 minutes)?
**A.** The value was “strong synergistic activation of both forms”.

**Q.** And the “c-fos expression, agent alone” value (c-fos; soluble anti-CD3, 40 minutes)?
**A.** The value was “induction”.

**Q.** cyclosporin A [CsA] was tested. Which “effect on synergistic induction of c-jun by both costimulatory paradigms” value (c-jun; CsA 100 ng/ml with TPA+A23187 or anti-CD3+anti-CD28, 40 minutes) did it give?
**A.** The value was “partially inhibited”.

**Q.** And the “ERK2 activation by anti-CD3, effect of CsA” value (ERK2; CsA 100 ng/ml)?
**A.** Its value is “nor was it inhibited”.

**Q.** What about the “JNK activation, in-gel kinase assay, CsA added to TPA+A23187” value ([1]; CsA 100 ng/ml, 15 minutes) of the same compound?
**A.** Its value is “blocked this costimulatory effect”.

**Q.** What about the “effect on maximal induction of c-fos by TPA+A23187” value (c-fos; CsA 100 ng/ml, 40 minutes) of the same compound?
**A.** Its value is “not inhibited”.
